Data as given in ChEMBL document CHEMBL1201862, “PubChem BioAssay data set” (2004).
Activity calls are given as the source filed them.

Experiments:
[1] = nonselective StAR promoter luciferase inhibitors – cell-based, luminescence, luciferase reporter, counter-screen for LRH-1 inverse agonist project, dose response (AID 651969); assay type: functional
[2] = target: Steroidogenic factor 1 (Homo sapiens, UniProt Q13285); experiment: Counterscreen for inverse agonists of the liver receptor homolog-1 (LRH-1; NR5A2): Luminescence-based cell-based high throughput dose response assay to identify inverse agonists of the Steroidogenic Factor 1 Nuclear Receptor (SF1; NR5A1).; assay type: functional
Chain of Steroidogenic factor 1 (Q13285 whole entry): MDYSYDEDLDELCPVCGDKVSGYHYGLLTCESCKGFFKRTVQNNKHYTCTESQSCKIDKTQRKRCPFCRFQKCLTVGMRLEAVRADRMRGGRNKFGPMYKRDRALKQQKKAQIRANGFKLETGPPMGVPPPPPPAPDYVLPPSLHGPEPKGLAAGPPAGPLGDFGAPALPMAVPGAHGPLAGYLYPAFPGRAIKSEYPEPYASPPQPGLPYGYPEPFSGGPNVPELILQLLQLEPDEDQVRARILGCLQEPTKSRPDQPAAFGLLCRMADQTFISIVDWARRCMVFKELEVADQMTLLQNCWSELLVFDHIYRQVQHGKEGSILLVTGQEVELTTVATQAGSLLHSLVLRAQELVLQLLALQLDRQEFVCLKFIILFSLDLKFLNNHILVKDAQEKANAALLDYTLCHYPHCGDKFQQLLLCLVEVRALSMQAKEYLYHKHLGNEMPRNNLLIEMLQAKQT

[3] = target: Nuclear receptor subfamily 5 group A member 2 (Homo sapiens, UniProt O00482); assay type: functional, cell-based;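 note: HEK293T cells transfected with LRH-1 and a StAR promoter luciferase reporter; potency for inhibitors that lower LRH-1 driven reporter light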
Chain of Nuclear receptor subfamily 5 group A member 2 (O00482 whole entry): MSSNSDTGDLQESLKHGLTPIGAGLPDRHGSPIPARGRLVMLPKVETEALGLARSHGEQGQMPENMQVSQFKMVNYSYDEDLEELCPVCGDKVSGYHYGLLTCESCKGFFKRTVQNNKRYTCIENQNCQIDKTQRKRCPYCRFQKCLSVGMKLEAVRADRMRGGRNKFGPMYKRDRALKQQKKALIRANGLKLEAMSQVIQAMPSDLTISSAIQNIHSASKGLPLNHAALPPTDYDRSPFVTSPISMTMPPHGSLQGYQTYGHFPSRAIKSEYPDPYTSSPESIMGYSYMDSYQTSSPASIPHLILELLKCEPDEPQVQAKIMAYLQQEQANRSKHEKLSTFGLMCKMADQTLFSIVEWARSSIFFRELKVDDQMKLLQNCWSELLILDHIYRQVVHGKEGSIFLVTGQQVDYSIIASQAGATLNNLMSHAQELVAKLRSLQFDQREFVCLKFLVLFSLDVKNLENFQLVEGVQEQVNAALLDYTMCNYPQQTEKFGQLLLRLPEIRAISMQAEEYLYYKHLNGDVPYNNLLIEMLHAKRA

[4] = system: Streptococcus sp. 'group A'; experiment: Streptococcus pyogenes SK(-)GAS viability under kanamycin – luminescence, BacTiterGlo, confirmation, counter-screen for streptokinase expression inhibitor project, dose response (AID 1900); assay type: functional, organism-based
[5] = system: Streptococcus; experiment: GAS UMAA2166 growth inhibition – luminescence, BacTiterGlo, counter-screen for streptokinase expression inhibitor project, dose response (AID 1915); assay type: functional, organism-based;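 note: potency for reduction of bacterial viability or growth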
[6] = target: Photoreceptor-specific nuclear receptor (Homo sapiens, UniProt Q9Y5X4); assay type: functional, cell-based;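 note: CHO-S cells with Gal4-NCOR and VP16-NR2E3 two-hybrid luciferase reporter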
Chain of Photoreceptor-specific nuclear receptor (Q9Y5X4 whole entry, the tested form may be a part): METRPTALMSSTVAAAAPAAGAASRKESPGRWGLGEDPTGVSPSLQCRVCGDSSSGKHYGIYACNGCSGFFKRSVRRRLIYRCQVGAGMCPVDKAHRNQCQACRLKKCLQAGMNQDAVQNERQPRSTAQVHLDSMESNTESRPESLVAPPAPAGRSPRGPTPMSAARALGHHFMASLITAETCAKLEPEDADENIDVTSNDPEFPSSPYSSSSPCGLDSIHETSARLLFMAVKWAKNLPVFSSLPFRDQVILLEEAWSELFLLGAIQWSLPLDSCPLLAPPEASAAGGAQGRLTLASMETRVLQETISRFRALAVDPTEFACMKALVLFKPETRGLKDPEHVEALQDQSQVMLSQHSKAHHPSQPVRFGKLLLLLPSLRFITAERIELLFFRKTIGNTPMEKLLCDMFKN

[7] = target: Beta-galactosidase (Escherichia coli, UniProt Q8VNN2); experiment: detection-enzyme interference by beta-gal modulators – biochemical, E. coli enzyme, set 3, artefact control for CCR6 antagonist project, dose response (AID 504712); assay type: functional
Chain of Beta-galactosidase (Q8VNN2 whole entry): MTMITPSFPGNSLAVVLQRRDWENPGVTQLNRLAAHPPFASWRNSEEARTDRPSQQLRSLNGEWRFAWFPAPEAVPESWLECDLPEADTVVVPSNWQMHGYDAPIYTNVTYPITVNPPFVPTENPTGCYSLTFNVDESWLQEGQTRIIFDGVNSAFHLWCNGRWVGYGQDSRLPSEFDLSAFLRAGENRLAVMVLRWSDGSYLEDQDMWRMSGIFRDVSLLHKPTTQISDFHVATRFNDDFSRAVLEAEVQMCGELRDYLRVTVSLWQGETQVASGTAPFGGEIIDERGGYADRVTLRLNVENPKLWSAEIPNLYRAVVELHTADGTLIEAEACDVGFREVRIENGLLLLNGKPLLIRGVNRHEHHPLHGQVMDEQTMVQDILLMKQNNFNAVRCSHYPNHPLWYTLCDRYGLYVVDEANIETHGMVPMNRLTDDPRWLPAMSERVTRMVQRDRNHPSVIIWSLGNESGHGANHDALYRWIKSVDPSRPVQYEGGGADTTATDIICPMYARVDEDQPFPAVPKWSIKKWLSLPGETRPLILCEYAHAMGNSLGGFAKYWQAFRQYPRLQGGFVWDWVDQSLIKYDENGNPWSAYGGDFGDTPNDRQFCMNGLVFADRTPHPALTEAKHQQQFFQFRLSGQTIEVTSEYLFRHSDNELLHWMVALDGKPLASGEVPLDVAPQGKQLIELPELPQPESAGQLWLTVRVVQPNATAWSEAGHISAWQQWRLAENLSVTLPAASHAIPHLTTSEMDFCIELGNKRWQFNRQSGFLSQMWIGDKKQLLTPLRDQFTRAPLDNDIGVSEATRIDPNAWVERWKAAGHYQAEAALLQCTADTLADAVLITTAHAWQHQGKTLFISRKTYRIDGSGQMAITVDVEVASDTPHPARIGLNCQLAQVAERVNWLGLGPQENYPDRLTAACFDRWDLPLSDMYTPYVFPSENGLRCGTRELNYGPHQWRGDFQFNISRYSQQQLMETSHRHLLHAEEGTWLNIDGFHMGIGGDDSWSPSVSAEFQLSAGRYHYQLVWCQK

[8] = target: T1, Adenosylmethionine-8-amino-7-oxononanoate aminotransferase (Mycobacterium tuberculosis, UniProt P9WQ81); experiment: Mycobacterium tuberculosis BioA enzyme inhibitor Measured in Biochemical System Using Plate Reader - 2163-02_Inhibitor_Dose_CherryPick_Activity.; assay type: functional, Mycobacterium tuberculosis UT205
T1 sequence (P9WQ81 whole entry): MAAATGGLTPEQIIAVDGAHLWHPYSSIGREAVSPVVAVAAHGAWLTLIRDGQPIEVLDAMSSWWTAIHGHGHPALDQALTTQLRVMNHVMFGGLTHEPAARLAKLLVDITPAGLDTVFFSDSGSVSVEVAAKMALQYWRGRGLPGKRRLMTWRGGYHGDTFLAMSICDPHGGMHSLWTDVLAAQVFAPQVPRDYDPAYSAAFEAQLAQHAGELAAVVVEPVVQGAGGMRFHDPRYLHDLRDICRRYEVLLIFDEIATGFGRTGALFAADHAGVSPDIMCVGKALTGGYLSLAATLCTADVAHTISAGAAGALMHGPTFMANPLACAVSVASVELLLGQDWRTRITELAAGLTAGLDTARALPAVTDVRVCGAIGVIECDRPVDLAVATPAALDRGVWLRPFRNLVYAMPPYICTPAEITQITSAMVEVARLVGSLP

[9] = target: T2, Small ubiquitin-related modifier 1 (Homo sapiens, UniProt P63165); experiment: SUMO1 protein interaction blockers, potency – biochemical, fluorescence polarization, uHTS hits, dose response (AID 624382); assay type: functional; details: read-out: IC50_Mean
T2 sequence (P63165 whole entry): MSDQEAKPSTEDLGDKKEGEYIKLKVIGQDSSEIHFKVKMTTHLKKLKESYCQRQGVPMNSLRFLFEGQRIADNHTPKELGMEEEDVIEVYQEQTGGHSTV

[10] = target: T2, Small ubiquitin-related modifier 1; experiment: SUMO1 protein-protein binding blockers, potency – biochemical, FRET, dose response (AID 624383); assay type: functional; details: read-out: IC50_Mean

SMILES	IC50 [1]	IC50 [2]	IC50 [3]	further results
COC(=O)c1ccc(CNC(=O)COC(=O)c2cc(Cl)nc(Cl)c2)cc1	35.9 µM (inactive)	12 µM (inactive)	12 µM (inactive)	–
Cc1cc(Br)ccc1NC(=O)CN1C(=O)CCC1=O	35.9 µM (inactive)	0.877 µM (active)	12 µM (inactive)	–
Cc1ccc(Cc2cnc(N3C(=N)SC(C)C3=O)s2)cc1 (stereo not drawn)	–	–	–	EC50 [4]: 0.574 µM (active); EC50 [5]: 3.44 µM (active); IC50 [6]: 1.89 µM (active); IC50 [7]: > 66.6 µM (inactive)
CC1CN(C(=O)Nc2ccc3snnc3c2)c2ccccc21 (stereo not drawn)	–	–	–	AC50 [8]: 0.212 µM (active)
C=CCCC(=O)Nc1nc(C)c(-c2csc(Nc3cccc(OC)c3)n2)s1	–	–	–	IC50 [9]: > 66.6 µM (inactive); IC50 [10]: 17.7 µM (active)
O=C(Nc1ccc(F)cc1)NC1CCN(Cc2nnnn2Cc2ccco2)CC1	–	–	–	AC50 [8]: 3.58 µM (active)
CCOc1ccc(NC(=O)COC(=O)CC2CCCCC2)cc1	35.9 µM (inactive)	35.9 µM (inactive)	35.9 µM (inactive)	–
O=C(CN1C(=O)C(c2ccc(F)cc2)=NC12CCCC2)Nc1ccc(F)cc1	–	–	–	IC50 [6]: 2.93 µM (active)
